# Measured values reported in article PMC3352927, “Development and Validation of an Automated High-Throughput System for Zebrafish In Vivo Screenings” (PLoS ONE, 2012).
# “Also recorded” adds a separate entry of the source. Counter-ions that a name gives are not always drawn. Like-named read-outs stand apart in the source and are kept apart here.
# Tests used:
# 48 hpf zebrafish embryos = conditions: for Cardiotoxic effect in zebrafish: blind screened between 1 and 200 µM, predominant effect
# Text: The image analysis program for the Cardiotoxicity assay was based on the processing of the videos to obtain a periodic signal of the cardiac motion automatically and independent to the embryo position.
# The detection of the heart beat frequency was based on the frequency spectrum analysis of the Euclidean Distance (ED) signal (built as the ED between the frames of the video referred to a reference frame calculated with the mean values of intensity for homogeneous zones). Obtaining the periodogram using the Discrete Fourier Transform (DFT), and modifying it to avoid undesired effects, the heart beat frequency was given by its first significant frequency (Figure 3 A).
# For embryos with arrhythmia (A), the sinusoidal course of the ED signal was disrupted due to the irregular beating of the heart, i.e. the different beating frequency of each chamber. The classification of the arrhythmia cases was therefore based on the number of significant frequencies detected in the DFT of the ED signal (Figure 3 B).
# Embryos at 48 hpf were automatically dispensed in a 96 well plate discarding exterior columns and rows and volume was leveled to 50µl with E3. Compounds were prepared 200 times concentrated in DMSO. A 1∶100 dilution was automatically made from the stock and 50 µl were added to each embryo to reach the final concentration. […] Embryos that moved during video recording were discarded. […] One video per embryo from a minimum of 10 embryos in each treated group were necessary for statistical analysis.
# humans = conditions: known effects in humans; cited from earlier work
# zebrafish embryos [1] = assay: Automated angiogenesis assay (ISV formation), Flk1:copGFP embryos treated at 22-26 hpf, read at 48 hpf; type: in vivo; conditions: for IC50: manually quantified; for Angiog. inhibition: presence or absence of an anti-angiogenic effect, 0.01-100 µM; for Anti-angiogenic phenotype (ISVs / DLAV): treated at 24 hpf, checked at 48 hpf; for Efective concentration (minimum concentration that showed an effect): given when IC50 could not be calculated
# Text: In the angiogenesis assay, the fluorescent images taken were processed using AxioVision 4.6.3 and a macro was developed to quantify an indirect measure of the area of the ISVs. […] However, we usually include a manual counting to offer a more detailed measurement of effect.
# In the automatic analysis of angiogenesis, it is first necessary to perform a sequence of automated filtering functions on the image to extract information, define the region of interest (ROI), that in this case is the part of the tail containing the ISVs, and allow the measurement of the embryo length. Recovering a previous image, new filtering functions are applied to the ROI. A gradient image containing the ISVs, the DLAV (Dorsal Longitudinal Anastomotic Vessel), the PCV and the DA is created. Next, fluorescent areas that should not be quantified are discarded. Finally, only the areas comprised between the ISVs, the DLAV and the PCV or the DA are measured (Figure 4). In that way, when the vessels are incomplete or the DLAV is not present, an enclosed area is not present and therefore not measured.
# The means obtained from the treated embryos were compared with the control mean. When statistically significant differences were detected a deeper analysis was done manually. In this case the parameters quantified were:
# • The total number of ISVs present in the trunk of the embryos (from where the largest bulge of the yolk ends to the end of the tail). • Number of complete ISVs (reached the dorsal part of the embryo and formed the DLAV).
# A curve of six concentrations (0.01, 0.1, 1, 10, 30 and 100 µM) was performed for all of them. […] IC50 was calculated when a clear dose-dependent anti-angiogenesis effect was detected. Otherwise, the minimum dose at which the inhibition of angiogenesis was observed is shown (Table 4).
# At this time, chorions were removed with protease from Streptomyces griseus (Sigma-Aldrich) (1.5 mg/ml for 6 minutes) and the embryos were sorted and dispensed 1 per well in a 96 well assay plate. Each experimental condition was tested in a row with ten embryos. Embryos were dispensed in an average final volume of 90 µl of E3 media. 90 µl of the test items (DMSO and positive control KRN633 included) previously diluted 100 times were dispensed into each well of the assay plate containing the embryos to get the final volume of 180 µl and the desired final concentration.
# The microscope scanned the wells by columns and a bright field image and a fluorescent image (2.5×magnification) were acquired per well. Then, the image analysis was performed and the result file generated.
# Statistical analysis and graphical representation of the data were performed using SSPS (Statistical Package for the Social Sciences) software and Prism (Graph Pad Software) for IC50 calculations (non linear regression, sigmoidal dose-response with variable slope). […] In the angiogenesis assay, for comparisons between two groups, two-tailed t-test was used assuming unequal variances. For comparisons between more than two groups one-way analysis of variance followed by Dunnett’s post-test was applied to compare each data point with vehicle control.
# zebrafish embryos [2] = assay: Embryo analysis at 72 hpf (blood circulation and ISVs development); type: in vivo; conditions: 72 hpf
# Protocol: Embryos from the Flk1:copGFP line were treated with the indicated compounds at 22–23 hpf in 500 µl of E3 in p24 well plates (5 embryos per well). After 48 hours of treatment embryos were anesthetized with 10 µl Tricaine (final concentration 0.02%) and analyzed for the presence of blood circulation and ISVs development using a Leica M205 FA stereoscope equipped with a Hamamatsu C10600 camera.
# [3] = Danio rerio, read-out: IC50 C.V. (complete number of vessels)
# [4] = Danio rerio, read-out: IC50 T.V. (total number of vessels)
# [5] = read-out: IC50 C.V. (complete number of vessels)
# [6] = read-out: IC50 T.V. (total number of vessels)
compound,measurement,setting,value
CCS(=O)(=O)N(C)[C@H]1c2cc(C#N)ccc2OC(C)(C)[C@@H]1O (racemic) [Chromanol 293b],Cardiotoxic effect in zebrafish,48 hpf zebrafish embryos,No effect
same,Cardiac effect in humans,humans,QT-prolong.
COc1cc2c(cc1O)CC[C@@H]1[C@@H]2CC[C@]2(C)[C@@H](O)CC[C@@H]12 [2-Methoxyestradiol],IC50,zebrafish embryos [1]; [3],10.2 µM
same,IC50,zebrafish embryos [1]; [4],30.6 µM
same,Angiog. inhibition,zebrafish embryos [1],Yes
same,Anti-angiogenic phenotype (ISVs / DLAV),zebrafish embryos [1],the formation of ISVs was perturbed with defective or total absence of sprouting
Cc1cn[nH]c1.Cl [4-Methylpyrazole hydrochloride],Angiog. inhibition,zebrafish embryos [1],No
COc1cc2ncnc(Nc3cccc(Cl)c3)c2cc1OC [AG1478],IC50,zebrafish embryos [1]; [5],13 µM
same,IC50,zebrafish embryos [1]; [6],22.8 µM
same,Angiog. inhibition,zebrafish embryos [1],Yes
same,Anti-angiogenic phenotype (ISVs / DLAV),zebrafish embryos [1],the formation of ISVs was perturbed with defective or total absence of sprouting; also recorded: lower number of incomplete ISVs
COc1cc2ncc(-c3ccccc3)nc2cc1OC [AG-1296],Efective concentration (minimum concentration that showed an effect),zebrafish embryos [1],20 µM
same,Angiog. inhibition,zebrafish embryos [1],Yes
same,Anti-angiogenic phenotype (ISVs / DLAV),zebrafish embryos [1],moderate effect that did not increase with higher doses
same,Anti-angiogenic phenotype (ISVs / DLAV),zebrafish embryos [1]; listed as AG1296,inhibit proper development of the DLAV; also recorded: thinner ISVs rather than incomplete vessel formation
same,Blood circulation,zebrafish embryos [2],impaired blood circulation
same,ISVs appearance,zebrafish embryos [2],thinner ISVs that were disrupted in some cases
CC(N)=O [Acetamide],Angiog. inhibition,zebrafish embryos [1],No
CCCCc1oc2ccccc2c1C(=O)c1cc(I)c(OCCN(CC)CC)c(I)c1 [Amiodarone hydrochloride],Angiog. inhibition,zebrafish embryos [1],No
CCCCc1oc2ccccc2c1C(=O)c1cc(I)c(OCCN(CC)CC)c(I)c1 [Amiodarone],Cardiac effect in humans,humans,QT-prolong.
COc1ccc(CCN2CCC(Nc3nc4ccccc4n3Cc3ccc(F)cc3)CC2)cc1 [Astemizole],Cardiac effect in humans,humans,QT-prolong.
CC(C)C[C@H](NC(=O)[C@@H](O)[C@H](N)Cc1ccccc1)C(=O)O [Bestatin],Angiog. inhibition,zebrafish embryos [1],No
COc1cc(Nc2c(C#N)cnc3cc(OCCCN4CCN(C)CC4)c(OC)cc23)c(Cl)cc1Cl [Bosutinib],Efective concentration (minimum concentration that showed an effect),zebrafish embryos [1],50 µM
same,Angiog. inhibition,zebrafish embryos [1],Yes
same,Anti-angiogenic phenotype (ISVs / DLAV),zebrafish embryos [1],moderate effect that did not increase with higher doses
same,Blood circulation,zebrafish embryos [2],impaired blood circulation
same,ISVs appearance,zebrafish embryos [2],thinner ISVs that were disrupted in some cases
COc1cc(N)c(Cl)cc1C(=O)NC1CCN(CCCOc2ccc(F)cc2)CC1OC (stereo not drawn) [Cisapride],Cardiac effect in humans,humans,QT-prolong.
C[C@H]1O[C@@H](O[C@H]2[C@@H](O)C[C@H](O[C@H]3[C@@H](O)C[C@H](O[C@H]4CC[C@@]5(C)[C@H](CC[C@@H]6[C@@H]5CC[C@]5(C)[C@@H](C7=CC(=O)OC7)CC[C@]65O)C4)O[C@@H]3C)O[C@@H]2C)C[C@H](O)[C@@H]1O [Digitoxin],Predominant observed effect,"48 hpf zebrafish embryos; 48 hpf zebrafish embryos, 5 µM",N
same,Cardiotoxic effect in zebrafish,48 hpf zebrafish embryos,Cardiac arrest
COc1cccc2c1C(=O)c1c(O)c3c(c(O)c1C2=O)C[C@@](O)(C(=O)CO)C[C@@H]3O[C@H]1C[C@H](N)[C@H](O)[C@H](C)O1 [Doxorrubicin],Cardiac effect in humans,humans,No effect
CC(C)C[C@H](NC(=O)[C@H]1O[C@@H]1C(=O)O)C(=O)NCCCCN=C(N)N [E64],Angiog. inhibition,zebrafish embryos [1],No
CNCCC(Oc1ccc(C(F)(F)F)cc1)c1ccccc1 (stereo not drawn) [Fluoxetine],Cardiac effect in humans,humans,Arrhythmia
O=C(O)P(=O)(O)O [Foscarnet],Cardiotoxic effect in zebrafish,48 hpf zebrafish embryos,Bradycardia
same,Cardiac effect in humans,humans,Bradycardia
CO[C@@H]1[C@H](OC(=O)/C=C/C=C/C=C/C=C/C(=O)O)CC[C@]2(CO2)[C@H]1[C@@]1(C)O[C@@H]1CC=C(C)C [Fumagillin],Angiog. inhibition,zebrafish embryos [1],not detected and No
COC(=O)c1ccc(O)c(NC(=O)COc2ccc(C34CC5CC(CC(C5)C3)C4)cc2)c1 [HIF-1 Inhibitor],Angiog. inhibition,zebrafish embryos [1],No
same,Angiog. inhibition,zebrafish embryos [1]; listed as Hif-1 inhibitor,not detected
O=C1Nc2ccccc2/C1=C1/Nc2ccccc2/C1=N\O [Indirubin-3̀-oxime],IC50,zebrafish embryos [1]; [5],4.2 µM
same,IC50,zebrafish embryos [1]; [6],18.3 µM
same,Angiog. inhibition,zebrafish embryos [1],Yes
same,Anti-angiogenic phenotype (ISVs / DLAV),zebrafish embryos [1],the formation of ISVs was perturbed with defective or total absence of sprouting
CCCNC(=O)Nc1ccc(Oc2ncnc3cc(OC)c(OC)cc23)cc1Cl [KRN633],IC50,zebrafish embryos [1]; [3],0.026 µM
same,IC50,zebrafish embryos [1]; [4],0.035 µM
same,Angiog. inhibition,zebrafish embryos [1],Yes
same,Anti-angiogenic phenotype (ISVs / DLAV),zebrafish embryos [1],the formation of ISVs was perturbed with defective or total absence of sprouting
O=C(c1ccc(F)cc1)C1CCN(CCn2c(=O)[nH]c3ccccc3c2=O)CC1 [Ketanserin],Cardiac effect in humans,humans,Bradycardia
CS(=O)(=O)CCNCc1ccc(-c2ccc3ncnc(Nc4ccc(OCc5cccc(F)c5)c(Cl)c4)c3c2)o1 [Lapatinib],Cardiac effect in humans,humans,No effect
